# Reference: patent US20170095440A1, “METHOD OF TREATING CANINE PANCREATITIS” (CK9, LLC, priority 2014, published 2017)
# Values joined by “and” are separate entries in the source; they are usually repeats but may differ in a detail not shown here. Identical values can stand only once. “Also recorded” adds a separate entry of the source.
# Assays:
# [1] = tested on: dogs with suspected chronic pancreatitis; test: Serum canine pancreas-specific lipase (cPL/cPLI, Spec cPL) before and after treatment, clinical trial; assay type: in vivo, dog; conditions: for Change in serum cPL/cPLI, pre- vs post-treatment (Wilcoxon matched-pair): methanesulfonate
# Experimental: (§1) Dogs were identified by screening current submissions to the Gastrointestinal Laboratory at Texas A&M indicative of pancreatitis (canine pancreas-specific lipase≧400 μg/L) using an immunoassay for measurement of canine pancreas-specific lipase in canine serum known as the spec CPL® Test (IDEXX, Laboratories). A number of potential study participants were directly referred to the investigator by veterinarians, based on positive pet-side SNAP cPL® Test (IDEXX Laboratories, Westbrook, Me., USA) results and concomitant clinical signs. After ascertaining individual suitability of a patient with the referring veterinarian, serum canine pancreas-specific lipase concentration, serum biochemistry profile, and complete blood count were evaluated or re-evaluated 12±4 days after collection of the initial sample submission to the Gastrointestinal Laboratory. Based on the assumption that consecutive canine pancreas-specific lipase elevations indicate chronic pancreatitis, enrollment was offered for patients with canine pancreas-specific lipase concentrations≧400 μg/L, serum triglyceride concentrations below 500 mg/dL, and no indication of hepatic, renal, or other organ disease. […] Owner consent was required prior to phlebotomy and for enrollment into the trial.
# (§2) […] […] Individual patients were medicated for between 21 to 31 days.
# (§3) Blood samples were collected before beginning the treatment and after completion of the treatment period. Complete blood count (red blood cell count, hematocrit, mean corpuscular volume, mean corpuscular hemoglobin, mean corpuscular hemoglobin concentration, differential and absolute white blood cell count, red blood cell count, hemoglobin, platelet estimate, red blood cell morphology, white blood cell morphology, and hemoparasites) was evaluated at the Texas Veterinary Medical Diagnostic Laboratory (TVMDL). A serum chemistry profile with electrolytes (glucose, blood urea nitrogen, creatinine, calcium, phosphorus, albumin, total protein, total bilirubin, alkaline phosphatase, alanine amino transferase, aspartate amino transferase, γ-glutamyl transferase, cholesterol, triglycerides, globuline, sodium, potassium, and chloride) was performed on a SIRRUS analyzer (Stanbio, Boerne, Tex., USA). Serum concentrations of cPL (RI: 0-200 μg/L; Spec cPL® IDEXX Laboratories, Westbrook, Me., USA), cTLI (RI: 5.7-45.2 μg/L; Canine TLI DOUBLE ANTIBODY®, Siemens Healthcare Diagnostics, Los Angeles, Calif., USA), cobalamin (RI: 251-908 ng/L), and folate (RI: 7.7-24.4 μg/L; Immulite 2000®, Siemens Healthcare Diagnostics Inc., Deerfield, Ill., USA), canine specific C-reactive protein (RI: 0-7.6 mg/L, Tridelta Development Limited, Maynooth, CO. Kildare, Ireland), S100A12 (RI: 56-331 μg/L, Gastrointestinal Laboratory in-house radioimmunoassay), and TGF-β1 (RI: 38-72 ng/mL; Quantikine® ELISA, R&D Systems, Minneapolis, […]., USA) were performed at the Gastrointestinal Lab at Texas A&M University.
# Additionally, samples that exceeded the working range of the Spec cPL assay were diluted and re-analyzed.
# (§4) Pre-treatment and post-treatment results for all diagnostic tests were statistically analyzed using Prism 6 (GraphPad Software, La Jolla, Calif., USA). The D'Agostino-Pearson omnibus test was used to evaluate all datasets for Gaussian distribution. Groups were compared using a paired t-test for normally-distributed data sets and a Wilcoxon matched-pairs test when Gaussian distribution could not be assumed. Mean values and standard deviation are reported for data sets with Gaussian distribution. Median and minimum/maximum values are reported for data sets where Gaussian distribution could not be assumed. The significance threshold was set at p=0.05.
# trypsin = trypsin (Homo sapiens, UniProt P07477); conditions: cited from earlier work
# [2] = tested on: dogs with suspected chronic pancreatitis; test: Adverse drug reactions, complete blood count and serum biochemistry profile, clinical trial; assay type: in vivo, dog
# Experimental: (§5) Treatment effects on overall health status, quality of life, and clinical signs were also evaluated with serum biochemistry profiles, complete blood counts, and owner questionnaires.
# (§6) Twelve enrolled dogs received camostat capsules at a dosage of 4 mg/kg q 8 hrs, for a total dose of 12 mg/kg q 24 hrs. […] Individual patients were medicated for between 21 to 31 days.
# (§7) Patients were treated at home and their overall health was monitored by their owners and the referring physician.
# as §3, §4
# [3] = tested on: dogs with suspected chronic pancreatitis; test: Serum cTLI before and after treatment, clinical trial; assay type: in vivo, dog
# Experimental: as §5, §1, §2, §3, §4
# TGF-β1 = conditions: one published study, cited from earlier work
# [4] = tested on: dogs with suspected chronic pancreatitis; test: Serum S100A12 before and after treatment, clinical trial; assay type: in vivo, dog; conditions: for Change in serum S100A12, pre- vs post-treatment: methanesulfonate
# Experimental: as §5, §1, §6
# (§8) Blood samples were collected before beginning the treatment and after completion of the treatment period. Complete blood count (red blood cell count, hematocrit, mean corpuscular volume, mean corpuscular hemoglobin, mean corpuscular hemoglobin concentration, differential and absolute white blood cell count, red blood cell count, hemoglobin, platelet estimate, red blood cell morphology, white blood cell morphology, and hemoparasites) was evaluated at the Texas Veterinary Medical Diagnostic Laboratory (TVMDL). A serum chemistry profile with electrolytes (glucose, blood urea nitrogen, creatinine, calcium, phosphorus, albumin, total protein, total bilirubin, alkaline phosphatase, alanine amino transferase, aspartate amino transferase, γ-glutamyl transferase, cholesterol, triglycerides, globuline, sodium, potassium, and chloride) was performed on a SIRRUS analyzer (Stanbio, Boerne, Tex., USA). […]
# (§9) Pre-treatment and post-treatment results for all diagnostic tests were statistically analyzed using Prism 6 (GraphPad Software, La Jolla, Calif., USA). […]
# plasmin = plasmin (Homo sapiens, UniProt P00747); conditions: cited from earlier work
# plasmin, sequence (P00747 581-810 limits assumed, species assumed): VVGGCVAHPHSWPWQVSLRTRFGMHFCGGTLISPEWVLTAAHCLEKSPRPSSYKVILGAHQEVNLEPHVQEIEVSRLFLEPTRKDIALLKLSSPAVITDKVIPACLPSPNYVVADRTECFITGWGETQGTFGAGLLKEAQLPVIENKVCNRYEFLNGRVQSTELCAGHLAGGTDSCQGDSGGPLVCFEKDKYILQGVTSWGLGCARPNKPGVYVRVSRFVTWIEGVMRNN
# plasmin, sequence (P00747 97-580 partner limits assumed, species assumed): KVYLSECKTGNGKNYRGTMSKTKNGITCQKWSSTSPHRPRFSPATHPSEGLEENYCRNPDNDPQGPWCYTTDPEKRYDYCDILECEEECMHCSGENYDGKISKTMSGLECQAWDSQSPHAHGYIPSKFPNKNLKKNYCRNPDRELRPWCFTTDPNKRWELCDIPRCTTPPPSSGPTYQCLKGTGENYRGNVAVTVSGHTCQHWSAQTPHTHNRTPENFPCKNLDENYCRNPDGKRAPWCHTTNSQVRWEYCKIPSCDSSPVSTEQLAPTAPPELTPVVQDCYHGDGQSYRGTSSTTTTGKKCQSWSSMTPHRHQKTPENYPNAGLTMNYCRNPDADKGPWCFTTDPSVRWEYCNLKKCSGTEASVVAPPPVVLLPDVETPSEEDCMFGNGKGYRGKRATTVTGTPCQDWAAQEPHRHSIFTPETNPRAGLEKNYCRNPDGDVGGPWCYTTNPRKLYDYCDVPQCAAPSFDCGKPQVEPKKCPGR
# [5] = tested on: dogs with suspected chronic pancreatitis; test: Serum C-reactive protein before and after treatment, clinical trial; assay type: in vivo, dog; conditions: for Change in serum C-reactive protein, pre- vs post-treatment: methanesulfonate
# Experimental: as §5, §1, §6, §8, §9
# [6] = tested on: dogs with suspected chronic pancreatitis; test: Serum S100A12 before and after treatment, clinical trial; assay type: in vivo, dog; conditions: 8 mg/kg q 8 hrs, n=17
# [7] = tested on: dogs with suspected chronic pancreatitis; test: Quality of life reported by owners and referring vets, clinical trial; assay type: in vivo, dog
# Experimental: as §5, §7
# Owners of enrolled dogs received instructions to refrain from changing the dog's diet during the trial period and to report on the overall health status and quality of life of their pet.
# rat models = conditions: cited from earlier work
# dogs = conditions: 10, 30 and 100 mg/kg/day, oral capsules, 30-day study; cited from earlier work
# [8] = tested on: dogs with suspected chronic pancreatitis; test: Serum C-reactive protein before and after treatment, clinical trial; assay type: in vivo, dog; conditions: 8 mg/kg q 8 hrs, n=17
# [9] = all treated dogs combined, n=29, trend towards a decrease
smiles,measurement,setting,value
"CN(C)C(=O)COC(=O)Cc1ccc(OC(=O)c2ccc(NC(=N)N)cc2)cc1 [Camostat Mesilate, N,N-dimethylcarbamoylmethyl-4-(4-guanidinobenzoyloxy)phenylacetate methanesulfonate]",Serum cPL/cPLI concentration post-treatment (median),"[1]; 4 mg/kg q 8 hrs oral capsules, 21-31 days, n=12, pre-treatment median 501, post range 125-2,836, p=0.9697",453 µg/L
same,"Change in serum cPL/cPLI, pre- vs post-treatment (Wilcoxon matched-pair)","[1]; 4 mg/kg q 8 hrs, n=12",no significant difference; also recorded: did not change significantly
same,"Change in serum cPL/cPLI, pre- vs post-treatment (Wilcoxon matched-pair)","[1]; 8 mg/kg q 8 hrs (24 mg/kg q d), n=17",significant difference; also recorded: statistically significant change; also recorded: statistically significant decrease
same,Serum cPL/cPLI concentration post-treatment (median),"[1]; 8 mg/kg q 8 hrs oral capsules, 21-31 days, n=17, pre-treatment median 882, post range 193-2,580, p=0.0232",633 µg/L
same,Serum cPL/cPLI concentration post-treatment (median),"[1]; all treated dogs combined, n=29, pre-treatment median 690, post range 125-2,836, p=0.0903 or 0.0562",514 µg/L
same,"Change in serum cPL/cPLI, pre- vs post-treatment (Wilcoxon matched-pair)",[1]; [9],no statistically significant difference
same,Anti-trypsin activity,trypsin,pronounced anti-trypsin
same,Adverse drug reactions,"[2]; 4 mg/kg q 8 hrs, 12 dogs, reported in two dogs",increased flatulence
same,Adverse drug reactions,"[2]; 8 mg/kg q 8 hrs, 17 dogs, each sign in one dog, methanesulfonate",pruritus in one front paw; also recorded: increased flatulence
same,"Complete blood count and serum biochemistry parameters, pre- vs post-treatment",[2]; all treated dogs,no statistically significant differences
same,Increase in serum aspartate amino transferase activity after treatment,[2]; another individual dog,6 fold
same,Side effects overall,"[2]; both dosages (12 or 24 mg/kg q d), 26±5 days",very mild side effects
same,Other clinical signs suggestive of an adverse drug reaction,[2]; either group (4 or 8 mg/kg q 8 hrs),No other clinical signs suggestive of an adverse drug reaction were observed
same,Increase in serum γ-glutamyl transferase activity after treatment,[2]; one individual dog,35 fold
same,Increase in aspartate amino transferase activity after treatment,[2]; one individual dog (same dog as the γ-glutamyl transferase increase),6 fold
same,"Change in serum cTLI, pre- vs post-treatment","[3]; 4 mg/kg q 8 hrs, n=11, methanesulfonate",no significant difference; also recorded: did not change significantly
same,Serum cTLI concentration post-treatment (median),"[3]; 4 mg/kg q 8 hrs, n=11, pre-treatment median 22, post range 17-55, p=0.8311",28 µg/L
same,"Change in serum cTLI, pre- vs post-treatment","[3]; 8 mg/kg q 8 hrs, n=17, methanesulfonate",no significant difference; also recorded: No significant changes
same,Serum cTLI concentration post-treatment (median),"[3]; 8 mg/kg q 8 hrs, n=17, pre-treatment median 35, p=0.1594, methanesulfonate",22 µg/L and 24 µg/L
same,"Change in serum cTLI, pre- vs post-treatment","[3]; all treated dogs combined, n=28, methanesulfonate",no significant difference; also recorded: No significant changes
same,Serum cTLI concentration post-treatment (median),"[3]; all treated dogs combined, n=28, pre-treatment median 32, post range 6-81, p=0.2098",25 µg/L
same,Hepatic stellate cell activation and hepatic fibrosis,TGF-β1,attenuated hepatic stellate cell activation as well as hepatic fibrosis
same,Systemic or local side effects,TGF-β1,without entailing apparent systemic or local side effects
same,TGF-β1 concentrations,TGF-β1; methanesulfonate,decreased TGF-β1 concentrations; also recorded: suppressed
same,"Change in serum S100A12, pre- vs post-treatment","[4]; 4 mg/kg q 8 hrs, n=11",decreased significantly
same,Serum S100A12 concentration post-treatment (median),"[4]; 4 mg/kg q 8 hrs, n=11, pre-treatment median 160, post range 43-449, p=0.0010",88 µg/L
same,"Change in serum S100A12, pre- vs post-treatment","[4]; all treated dogs combined, n=28",no significant difference; also recorded: did not change significantly; also recorded: did not lead to any significant changes
same,Serum S100A12 concentration post-treatment (median),"[4]; all treated dogs combined, n=28, pre-treatment median 154, post range 43-746, p=0.1438",133 µg/L
same,Anti-plasmin activity,plasmin,anti-plasmin activity
same,"Change in serum C-reactive protein, pre- vs post-treatment","[5]; 4 mg/kg q 8 hrs, n=12",no significant difference; also recorded: did not change significantly
same,Serum C-reactive protein concentration post-treatment (median),"[5]; 4 mg/kg q 8 hrs, n=12, pre-treatment median 0.8, post range 0.0-9.4, p=0.1543",0.6 mg/L
same,Serum C-reactive protein concentration post-treatment (median),"[5]; all treated dogs combined, n=29, pre-treatment median 0.2, p=0.0595",0.1 mg/L
same,"Change in serum C-reactive protein, pre- vs post-treatment",[5]; [9],no statistically significant difference; also recorded: did not lead to any significant changes
same,"Change in serum S100A12, pre- vs post-treatment",[6]; methanesulfonate,no significant difference; also recorded: did not change significantly
same,Serum S100A12 concentration post-treatment (median),"[6]; pre-treatment median 147, post range 58-746, p=0.8176",148 µg/L
same,"Quality of life, reports from referring vets and pet owners",[7]; 24 mg/kg q d orally,subjective improvement of quality of life in some patients
same,"Quality of life, overall consensus from pet owners",[7]; all treated dogs,had improved
same,Fibrosis associated with chronic pancreatitis,rat models,suppress fibrosis
same,Microscopic signs of inflammation,rat models,markedly decrease microscopic signs of inflammation
same,Pro-inflammatory cytokine production,rat models,suppress pro-inflammatory cytokine production
same,Toxicity findings,dogs,no significant toxicities
same,"Change in serum C-reactive protein, pre- vs post-treatment",[8]; methanesulfonate,no significant difference; also recorded: did not change significantly
same,Serum C-reactive protein concentration post-treatment (median),"[8]; pre-treatment median 0.1, post range 0.1-6.8, p=0.25",0.1 mg/L
